Legend:
BCL-2^1-211 = BCL-2^1-211 (Homo sapiens, UniProt P10415); assay: Fluorescence polarization competition assay (FPCA), FITC-Bak competed off BCL-2; assay type: binding
Procedure: Fluorescence polarization assays were performed in 96 well polypropylene F-bottom black microplates (Greiner Bio-One) with a final volume of 100 μL. […] The changes in the fluorescence polarization were then measured using a BMG PHERAstar FS multimode microplate reader equipped with two PMTs for simultaneous measurements of both the perpendicular and parallel fluorescence emission at a 485 nm excitation and 520 nm emission filter.
The fluorescence polarization competition assays were setup using a Biomek FXP Automated Liquid Handling System. […] The IC50 values were then converted to Ki values using an equation derived by Nikolovska-Coleska et al. All inhibitors were tested in triplicate.

MOLM14 AML cells = assay: Luc-labelled MOLM14 AML xenograft pilot experiment in NRG mice; conditions: two 5d PO treatment cycles (d1-5, d21-25), imaging d7, d14, d21, 5 mice/group
Procedure: Statistical analyses are conducted using GraphPad software. AML burden is quantified using log transformed ratio of luminescence at d7/14/21 vs do for each mouse (fold-change); groups are compared using the appropriate parametric (ANOVA; t-test, etc) or non-parametric alternative as necessary (Wilcoxon rank sum, Kruskal-Wallis). For time-to-event endpoints, Kaplan-Meier survival of groups are compared using the log-rank test. p<0.05 is considered statistically different.
On d0, after Xenogen quantification of baseline total body luminescence (AML burden), groups of 5 AML-bearing mice were treated on days 1-5, per previously established MTD PO×5d schedule, with VEN (150 mg/kg/d PO×5), as monotherapy or co-administered with SOR (30 mg/kg/d PO×5), ART (50 mg/kg/d PO×5), and/or ASP (200 IU/kg IP single dose). A second identical drug cycle was administered on d21-25. On d7, d14 and d21, each mouse was Xenogen imaged for total body luminescence, fold-change AML burden from do was calculated for each mouse, and mean (+/−SD) fold-change for each experimental group plotted.

Chain of BCL-2^1-211 (P10415 1-211): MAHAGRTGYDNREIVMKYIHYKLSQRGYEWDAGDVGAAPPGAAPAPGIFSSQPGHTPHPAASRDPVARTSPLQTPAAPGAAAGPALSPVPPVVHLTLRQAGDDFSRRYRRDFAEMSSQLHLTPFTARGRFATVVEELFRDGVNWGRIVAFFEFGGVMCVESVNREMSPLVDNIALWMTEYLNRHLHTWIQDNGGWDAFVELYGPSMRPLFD

| Molecule | IC50 (BCL-2^1-211) | AML burden over time (fold-change total body luminescence) vs vehicle (MOLM14 AML cells) | AML burden over time (fold-change total body luminescence) vs vehicle (MOLM14 AML cells; listed as SOR) |
| --- | --- | --- | --- |
| CC1(C)CCC(CN2CCN(c3ccc(C(=O)NS(=O)(=O)c4ccc(NCCNC(=O)CC56CC7CC(CC(C7)C5)C6)c([N+](=O)[O-])c4)c(Oc4cnc5[nH]ccc5c4)c3)CC2)=C(c2ccc(Cl)cc2)C1 [SF-7-330] | < 0.02 µM |  |  |
| CC(C)Cc1ccc([C@@H](C)C(=O)NCCOCCOCCNc2ccc(S(=O)(=O)NC(=O)c3ccc(N4CCN(CC5=C(c6ccc(Cl)cc6)CC(C)(C)CC5)CC4)cc3Oc3cnc4[nH]ccc4c3)cc2[N+](=O)[O-])cc1 [CG-3-005] | < 0.02 µM |  |  |
| CC1(C)CCC(CN2CCN(c3ccc(C(=O)NS(=O)(=O)c4ccc(NCCOCCOCCNC(=O)C(c5ccccc5)c5ccccc5)c([N+](=O)[O-])c4)c(Oc4cnc5[nH]ccc5c4)c3)CC2)=C(c2ccc(Cl)cc2)C1 [CG-2-132] | < 0.02 µM |  |  |
| CNC(=O)c1cc(Oc2ccc(NC(=O)Nc3ccc(Cl)c(C(F)(F)F)c3)cc2)ccn1 [Sorafenib] |  | reduced AML burden only moderately | significant difference in AML burden only at d7 and d14 |
| PEGylated L-asparaginase |  | minimal activity |  |

From patent US20240299558A1, “PROTEOLYSIS TARGETING CHIMERAS AND POLYPHARMACOLOGICAL AGENTS TARGETING BCL-2, AND METHODS OF USE THEREOF” (University of Maryland, Baltimore, priority 2021, published 2024)
